This is an account of results in patent US8445522B2, “Substituted 2-(4-pyridyl)benzoxazoles, and compositions thereof, for use in arthropod pest control” (Sumitomo Chemical Company, Limited, priority 2009, dated 2013).

Holding throughout (format): in vivo
The test system of assay [1] is cotton aphids. Kind of assay: Test Example 3: plant foot irrigation of cucumber seedling in plastic cup, cotton aphids inoculated after seven days. The following applies: 144 h, read-out: Control value. On the procedure:
The formulations were diluted with water so that the concentration of the active ingredient became 500 ppm and thus test diluents were prepared. On the other hand, a plant foot of cucumber seedling (second true leaf development stage) planted in a plastic cup was irrigated with any one of diluents (5 ml). The seedling was kept in a green house of 25° C. for seven days. The cucumber leaves were inoculated with 30 cotton aphids (all stages) and kept in the green house for further six days. Thereafter, the number of survived cotton aphids parasitic on the cucumber leaves was counted, and the control value was calculated by the following equation. Control value(%)={1−(Cb×Tai)/(Cai×Tb)}×100 wherein each character represents the following meaning: Cb: number of insects in non-treated section before treatment Cai: number of insects in non-treated section during observation Tb: number of insects in treated section before treatment Tai: number of insects in treated section during observation

The test system of assay [2] is halymorpha halys. Description: Test Example 7: treated tissue paper with budding soybeans, halymorpha halys mortality. The note with it: 168 h. On the procedure: Formulations were prepared by the method described in Formulation Example 1 with respect to each of the active compound 13, the active compound 15, the active compound 18, the active compound 35, the active compound 37, the active compound 44, the active compound 65, the active compound 68 and the active compound 82. The formulations were diluted with water so that the concentration of the active ingredient became 100 ppm and thus test diluents were prepared.
On the other hand, a tissue paper placed in an aluminum cup was irrigated with any one of the above-mentioned diluents (5 ml). The tissue paper was placed in a polyethylene cup together with three budding soybeans. In the polyethylene cup, ten halymorpha halys were released, and the polyethylene cup was lidded by a polyethylene lid. Seven days after the releasing of the insects, the number of survived insects was counted, and the mortality was calculated by the following equation. Mortality(%)=(number of dead insects/number of insects to be tested)×100

Assay [3] deals with cotton aphids. Kind of assay: Test Example 2: plant foot irrigation of cucumber seedling in urethane mat, cotton aphids inoculated one day after treatment. The note with it: 168 h, read-out: Control value. The essentials:
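Cucumber seedlings at second true-leaf stage in urethane mat were foot-irrigated with 500 ppm active ingredient dilution. Leaves were inoculated with 30 cotton aphids (all stages) one day after treatment. Survivors counted seven days later, and control value (%) was calculated against the non-treated section using pre- and post-treatment insect counts.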

The test system of assay [4] is rice brown planthopper. Kind of assay: Test Example 6: plant foot irrigation of rice plant seedling, rice brown planthopper released after seven days. The note with it: Nilaparvata lugens, 144 h, read-out: Control value. The essentials:
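Two-week-old rice seedlings (second-leaf stage) had the plant foot irrigated with 5 ml of 500 ppm active ingredient, kept 7 days at 25° C, then infested with thirty first-instar brown planthoppers. Survivors counted after six more days at 25° C; control value (%) computed by Henderson–Tilton-type formula versus untreated.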

The subject of assay [5] is cotton aphids (Aphis gossypii Glover). Description: Test Example 1: test diluent scattered on cucumber seedling inoculated with cotton aphids. The following applies: 120 h, read-out: Control value. In a few lines: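 Cucumber seedlings at second true leaf stage, infested with about 30 cotton aphids one day before, were sprayed with 10 ml of diluent at 500 ppm active ingredient. Survivors counted 5 days later; control value (%) from treated versus untreated counts before and after treatment.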

The subject of assay [6] is tobacco whitefly. Kind of assay: Test Example 4: test diluent scattered on tomato seedling with hatched tobacco whitefly larvae. The note with it: 168 h, read-out: Control value. In a few lines:
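Tomato seedlings carried whitefly larvae hatched from a 24 h egg lay and were sprayed with 500 ppm active ingredient. After seven days at 25° C, surviving larvae were counted. Control value (%) was calculated against untreated plants, corrected for pre-treatment counts.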

Assay [7] deals with rice brown planthopper. Kind of assay: Test Example 5: test diluent scattered on rice plant seedling, rice brown planthopper released. The following applies: Nilaparvata lugens, 144 h, read-out: Control value. How it is done:
The formulations were diluted with water so that the concentration of the active ingredient became 500 ppm and thus test diluents were prepared. On the other hand, to a rice plant seedling (two weeks after seeding, second leaf development stage) planted in a plastic cup, any one of the diluents (10 ml) was scattered. After the drug solution scattered on the rice plant was dried, 30 first-instars of rice brown planthopper were released on the rice plant, which was kept in the green house at 25° C. for six days. Thereafter, the number of rice brown planthopper parasitic on rice plant was counted and the control value was calculated by the following equation. Control value(%)={1−(Cb×Tai)/(Cai×Tb)}×100 wherein each character represents the following meaning: Cb: number of insects in non-treated section before treatment Cai: number of insects in non-treated section during observation Tb: number of insects in treated section before treatment Tai: number of insects in treated section during observation

Assay [8] has as its system cotton aphids. Description: Test Example 8 and Comparative Test Example: 200 ppm diluent scattered on cucumber seedling inoculated with cotton aphids. The following applies: 200 ppm active ingredient, 10 ml scattered on cucumber seedling, counted five days after scattering.
Setting [9] is: 100 ppm, 5 ml on tissue paper with budding soybeans, ten insects, counted seven days after releasing, read-out: Mortality.

Each structure is given as a SMILES string. Read-outs that look alike come from different tables or passages of the source.

Usually mortality stands for the share of the test organisms that died. In the case of `FC(F)(F)c1ccc2oc(-c3ccncc3)nc2c1` [active compound 13, 2-(pyridin-4-yl)-5-(trifluoromethyl)benzoxazole], the pest or weed control at 500 ppm in assay [1] is at least 90%. In assay [2], this molecule registered a mortality at 100 ppm of at least 80%.

With `FC(F)(F)c1ccc2oc(-c3ccncc3Cl)nc2c1` [active compound 18, 2-(3-chloropyridin-4-yl)-5-(trifluoromethyl)benzoxazole], the pest or weed control at 500 ppm in assay [3] and in assay [4] was at least 90% each time. Besides, the mortality at 100 ppm in assay [2] was at least 80%.

As to `CCc1cnccc1-c1nc2cc(C(F)(F)F)ccc2o1` [active compound 35, 2-(3-ethylpyridin-4-yl)-5-(trifluoromethyl)benzoxazole], the pest or weed control at 500 ppm in assay [5], in assay [3], in assay [6], in assay [7] and in assay [4] was at least 90% in each case. The mortality at 100 ppm in assay [2] is at least 80%.

For the molecule `COc1cnccc1-c1nc2cc(C(F)(F)F)ccc2o1` [active compound 37, 2-(3-methoxypyridin-4-yl)-5-(trifluoromethyl)benzoxazole], the pest or weed control at 500 ppm in assay [5], in assay [3], in assay [1], in assay [6] and in assay [4] was at least 90% throughout. Further, the mortality at 100 ppm in assay [2] was at least 80%.

For `CC(C)(C)Sc1cnccc1-c1nc2cc(C(F)(F)F)ccc2o1` [active compound 44, 2-(3-tert-butylthiopyridin-4-yl)-5-(trifluoromethyl)benzoxazole], the pest or weed control at 500 ppm in assay [4] is at least 90%. The same molecule had a mortality at 100 ppm in assay [2] of at least 80%.

In the case of `FC(F)(F)C(F)(F)c1ccc2oc(-c3ccncc3)nc2c1` [active compound 65, 5-(pentafluoroethyl)-2-(pyridin-4-yl)-benzoxazole], the mortality at 100 ppm in assay [2] (setting [9]) is at least 80%.

With `FC(F)(F)C(F)(c1ccc2oc(-c3ccncc3Cl)nc2c1)C(F)(F)F` [active compound 68, 2-(3-chloropyridin-4-yl)-5-(heptafluoroisopropyl)benzoxazole], the pest or weed control at 500 ppm in assay [7] (500 ppm, 10 ml scattered on rice plant seedling, 30 first-instars released, counted after six days at 25° C.) was at least 90%. Also, in assay [2] (setting [9]), the mortality at 100 ppm was at least 80%.

`CC(=O)Nc1cnccc1-c1nc2cc(C(F)(F)F)ccc2o1` [active compound 82, N-[4-(5-trifluoromethylbenzoxazole-2-yl)pyridin-3-yl]acetamide]: in assay [2] (setting [9]), the mortality at 100 ppm is at least 80%.

Turning to `c1ccc2oc(-c3ccncc3)nc2c1` [comparative compound (B)], the Control value result in assay [8] is reported as “less than 30%”.
